The values below come from patent US12539264B2, “Composition comprising pentapeptide as active ingredient” (priority 2020, dated 2026).

No end group written: not given here.

One series has as its system SH-SY5Y cells. The experiment in a line: Intracellular penetration of rhodamine-pentapeptide conjugate (fluorescence microscopy). In kind it is cell-based. The note with it: rhodamine-peptide conjugate, 4 hours. Here is the method: In order to confirm that the pentapeptide of the present invention penetrates into the nerve cells, SH-SY5Y cells were seeded in a 6-well plate at a density of 3×10^5 cells/well and cultured in a 37° C., 5% CO2 incubator for 24 hours, and then the medium was replaced with serum-free medium. After treatment with the rhodamine-peptide conjugate for 4 hours at each concentration, cells were fixed by treatment with 4% paraformaldehyde, and nuclei were stained using a DAPI staining kit (Invitrogen, USA). Intracellular peptide penetration was observed using a fluorescence microscope. Blue represents the nuclei of cells stained with DAPI, and red represents the ‘rhodamine-pentapeptide’ conjugate.

The conditions of series [1]: rat, in vivo.
A further series addresses SNARE complex (Homo sapiens, UniProt Q16623). The experiment in a line: Inhibition of SNARE complex formation in nerve cells (Western blot, syntaxin 1a antibody). Format: cell-based.

Sequence of SNARE complex (Q16623 whole entry, one chain of several): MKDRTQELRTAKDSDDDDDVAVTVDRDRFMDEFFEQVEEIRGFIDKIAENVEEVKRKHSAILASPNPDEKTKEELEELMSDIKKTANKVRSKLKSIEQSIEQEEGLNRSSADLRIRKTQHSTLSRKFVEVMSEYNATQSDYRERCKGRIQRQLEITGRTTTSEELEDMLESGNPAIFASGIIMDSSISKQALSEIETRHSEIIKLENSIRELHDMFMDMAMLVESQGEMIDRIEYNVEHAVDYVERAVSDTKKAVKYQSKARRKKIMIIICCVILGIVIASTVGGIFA

Regarding KFLIK [pentapeptide, KFLIK], the “penetration into nerve cells” value in the series on SH-SY5Y cells is “penetrated into nerve cells”. Also, in series [1], the “penetration into skin tissue” value is “penetrated into the muscle layer of the skin tissue and co-localized with the nerve cell marker”.

Take botulinum toxin: the SNARE complex formation entry at SNARE complex is recorded as “inhibited”.
